In patent publication US11708348B2, “Protease inhibitors for treatment of coronavirus infections” (The Scripps Research Institute, priority 2021, dated 2023) one finds EC50 data, which are given here for 23 molecules.

As a reminder, the EC50 is the concentration needed to bring the measured effect to its halfway point.

Some results are limits rather than exact numbers.

The subject of the first experiment is SARS-CoV-2 strain USA-WA1/2020. The experiment is described as follows: microbe, parasite or virus in culture. The following applies: Severe acute respiratory syndrome coronavirus 2, HeLa-ACE2, 24 h, HeLa-ACE2 cells, SARS-CoV-2 infection, 24 h; bound printed in cell; read-out: EC50, uM (Hela). The format is cell-based.
On to `O=C1NCC[C@H]1C[C@H](NC(=O)[C@@H]1C[C@H]2C[C@H]2N1C(=O)[C@H]1CCCO1)C(=O)COC(F)(F)F` [Compound 303, (1R,3S,5R)-N-((S)-3-oxo-1-((S)-2-oxopyrrolidin-3-yl)-4-(trifluoromethoxy)butan-2-yl)-2-((R)-tetrahydrofuran-2-carbonyl)-2-azabicyclo[3.1.0]-hexane-3-carboxamide], for which the 50% effective concentration (EC50) was more than 1 µM.

Staying with this experiment, now noted: Severe acute respiratory syndrome coronavirus 2, HeLa-ACE2, 24 h, HeLa-ACE2 cells, SARS-CoV-2 infection, 24 h; class symbols; read-out: EC50, uM (Hela).
Turning to `Cc1cc(Cl)ccc1NC(=O)C(=O)N[C@@H](CC(C)C)C(=O)N[C@@H](C[C@@H]1CCNC1=O)C(=O)COc1c(F)c(F)cc(F)c1F` [Compound 77, N1-(4-chloro-2-methylphenyl)-N2-((S)-4-methyl-1-oxo-1-(((S)-3-oxo-1-((S)-2-oxopyrrolidin-3-yl)-4-(2,3,5,6-tetrafluorophenoxy)butan-2-yl)amino)pentan-2-yl)oxalamide], the EC50 was less than 0.05 µM. Regarding `CO[C@H](CC(C)C)C(=O)N1CC2(CC2)C[C@H]1C(=O)N[C@@H](C[C@@H]1CCNC1=O)C(=O)COC(F)(F)F` [Compound 381, (S)-5-((R)-2-methoxy-4-methylpentanoyl)-N-((S)-3-oxo-1-((S)-2-oxopyrrolidin-3-yl)-4-(trifluoromethoxy)butan-2-yl)-5-azaspiro[2.4]heptane-6-carboxamide], the EC50 is less than 0.05 µM. With `CC(C)[C@@H](O)C(=O)N1C[C@H]2[C@@H]([C@H]1C(=O)N[C@@H](C[C@@H]1CCNC1=O)C(=O)COC(F)(F)F)C2(C)C` [Compound 357, (1R,2S,5S)-3-((R)-2-hydroxy-3-methylbutanoyl)-6,6-dimethyl-N-((S)-3-oxo-1-((S)-2-oxopyrrolidin-3-yl)-4-(trifluoromethoxy)butan-2-yl)-3-azabicyclo-[3.1.0]hexane-2-carboxamide], the concentration giving a half-maximal response (EC50) is 0.05 to 0.2 µM. Regarding `CC(C)C[C@H](NC(=O)C(=O)NC1(c2ccccc2F)CC1)C(=O)N[C@@H](C[C@@H]1CCNC1=O)C(=O)COC(F)(F)F` [Compound 216, Nl-(1-(2-fluorophenyl)-cyclopropyl)-N2-((S)-4-methyl-1-oxo-1-(((S)-3-oxo-1-((S)-2-oxopyrrolidin-3-yl)-4-(trifluoromethoxy)butan-2-yl)amino)pentan-2-yl)oxalamide], the EC50 is less than 0.05 µM. In the case of `COc1cccc2[nH]c(C(=O)N[C@@H](CC(C)C)C(=O)N[C@@H](C[C@@H]3CCCNC3=O)C(=O)COC(F)(F)F)cc12` [Compound 229, 4-methoxy-N-((S)-4-methyl-1-oxo-1-(((S)-3-oxo-1-((S)-2-oxopiperidin-3-yl)-4-(trifluoromethoxy)butan-2-yl)amino)pentan-2-yl)-1H-indole-2-carboxamide], the EC50 was less than 0.05 µM. For the molecule `CC(C)C[C@H](NC(=O)C(=O)NCc1ccccc1)C(=O)N[C@@H](C[C@@H]1CCNC1=O)C(=O)COc1c(F)c(F)cc(F)c1F` [Compound 42, N1-benzyl-N2-((S)-4-methyl-1-oxo-1-(((S)-3-oxo-1-((S)-2-oxopyrrolidin-3-yl)-4-(2,3,5,6-tetrafluoro-phenoxy)butan-2-yl)amino)pentan-2-yl)oxalamide], the half-maximal effective concentration (EC50) lay in the range of 0.05 to 0.2 µM. Same read-out and setting: the same measure for `CC1(C)[C@@H]2[C@@H](C(=O)N[C@@H](C[C@@H]3CCNC3=O)C(=O)COC(F)(F)F)N(C(=O)[C@@H](O)CC3CC3)C[C@@H]21` [Compound 394, (1R,2S,5S)-3-((S)-3-cyclopropyl-2-hydroxypropanoyl)-6,6-dimethyl-N-((S)-3-oxo-1-((S)-2-oxopyrrolidin-3-yl)-4-(trifluoromethoxy)butan-2-yl)-3-azabicyclo[3.1.0] hexane-2-carboxamide]: less than 0.05 µM; for `CC(C)C[C@H](NC(=O)C(=O)NC1CCCC1)C(=O)N[C@@H](C[C@@H]1CCNC1=O)C(=O)COc1c(F)c(F)cc(F)c1F` [Compound 102, N1-cyclopentyl-N2-((S)-4-methyl-1-oxo-1-(((S)-3-oxo-1-((S)-2-oxopyrrolidin-3-yl)-4-(2,3,5,6-tetrafluorophenoxy)butan-2-yl)amino)pentan-2-yl)oxalamide]: 0.05 to 0.2 µM; for `COC(OC)C(=O)N1CC2(CC2)C[C@H]1C(=O)N[C@@H](C[C@@H]1CCNC1=O)C(=O)COC(F)(F)F` [Compound 340, (S)-5-(2,2-dimethoxyacetyl)-N—((S)-3-oxo-1-((S)-2-oxopyrrolidin-3-yl)-4-(trifluoromethoxy)butan-2-yl)-5-azaspiro[2.4]heptane-6-carboxamide]: 0.2 to 0.5 µM.

With `Cc1ccc(C2(NC(=O)C(=O)N[C@@H](CC(C)C)C(=O)N[C@@H](C[C@@H]3CCNC3=O)C(=O)COC(F)(F)F)CC2)cc1` [Compound 186, N1-((S)-4-methyl-1-oxo-1-(((S)-3-oxo-1-((S)-2-oxopyrrolidin-3-yl)-4-(trifluoromethoxy)butan-2-yl)amino)pentan-2-yl)-N2-(l-(p-tyolyl)-cyclopropyl)oxalamide], the EC50 was less than 0.05 µM.

The same experiment, now with this note: Severe acute respiratory syndrome coronavirus 2, HeLa-ACE2, 24 h, HeLa-ACE2 cells, SARS-CoV-2 infection, 24 h; read-out: EC50, uM (Hela).
For the molecule `O=C1NCC[C@H]1C[C@H](NC(=O)[C@@H]1[C@H]2CCC[C@H]2CN1C(=O)OC1CCOC1)C(=O)COC(F)(F)F` (stereo partly drawn) [Compound 559, tetrahydrofuran-3-yl (1S,3aR,6aS)-1-(((S)-3-oxo-1-((S)-2-oxopyrrolidin-3-yl)-4-(trifluoromethoxy)butan-2-yl)carbamoyl)-hexahydrocyclo-penta[c]-pyrrole-2(1H)-carboxylate], the EC50 is 0.05 to 0.2 µM. Same read-out and setting: under `O=C(Nc1ccccc1Cl)C(=O)N1CC2(CC2)C[C@H]1C(=O)N[C@@H](C[C@@H]1CCNC1=O)C(=O)COC(F)(F)F` [Compound 606, (S)-5-(2-((2-chlorophenyl)amino)-2-oxoacetyl)-N-((S)-3-oxo-1-((S)-2-oxopyrrolidin-3-yl)-4-(trifluoromethoxy)butan-2-yl)-5-azaspiro[2.4]heptane-6-carboxamide] stands less than 0.05 µM; under `CN(C)S(=O)(=O)N(C)CC(=O)N1CC2(CC2)C[C@H]1C(=O)N[C@@H](C[C@@H]1CCNC1=O)C(=O)COC(F)(F)F` [Compound 693, (S)-5-(N-(N,N-dimethylsulfamoyl)-N-methylglycyl)-N-((S)-3-oxo-1-((S)-2-oxopyrrolidin-3-yl)-4-(trifluoromethoxy)butan-2-yl)-5-azaspiro[2.4]heptane-6-carboxamide], 0.2 to 0.5 µM. Consider `CC1(C)[C@@H]2[C@@H](C(=O)N[C@@H](C[C@@H]3CCNC3=O)C(=O)COC(F)(F)F)N(C(=O)[C@@H](O)c3ccccc3)C[C@@H]21` [Compound 416, (1R,2S,5S)-3-((S)-2-hydroxy-2-phenylacetyl)-6,6-dimethyl-N—((S)-3-oxo-1-((S)-2-oxopyrrolidin-3-yl)-4-(trifluoromethoxy)butan-2-yl)-3-azabicyclo[3.1.0]hexane-2-carboxamide], for which the EC50 is less than 0.05 µM. For the molecule `CC(C)C[C@@H](O)C(=O)N1[C@H](C(=O)N[C@@H](C[C@@H]2CCNC2=O)C(=O)COC(F)(F)F)CCC1(C)C` [Compound 787, (S)-1-((R)-2-hydroxy-4-methylpentanoyl)-5,5-dimethyl-N-((S)-3-oxo-1-((S)-2-oxopyrrolidin-3-yl)-4-(trifluoromethoxy)butan-2-yl)pyrrolidine-2-carboxamide], the half-maximal effective concentration (EC50) was in the range of 0.05 to 0.2 µM. For the molecule `CC(C)(C)c1ccc(C(=O)N2CC3(CC3)C[C@H]2C(=O)N[C@@H](C[C@@H]2CCNC2=O)C(=O)COC(F)(F)F)cc1` [Compound 453, (S)-5-(4-(tert-butyl)benzoyl)-N-((S)-3-oxo-1-((S)-2-oxopyrrolidin-3-yl)-4-(trifluoromethoxy)butan-2-yl)-5-azaspiro[2.4]heptane-6-carboxamide], the EC50 was less than 0.05 µM. Take `CC1(NC(=O)C(=O)N[C@@H](CC2CC2)C(=O)N[C@@H](C[C@@H]2CCNC2=O)C(=O)COC(F)(F)F)CC1` [Compound 585, N1-((S)-3-cyclopropyl-1-oxo-1-(((S)-3-oxo-1-((S)-2-oxopyrrolidin-3-yl)-4-(trifluoromethoxy)butan-2-yl)amino)propan-2-yl)-N2-(1-methylcyclo-propyl)oxalamide]: the EC50 is less than 0.05 µM. The same measure, in the same setting: under `O=C(NCC(F)(F)F)C(=O)N[C@@H](CC1CC1)C(=O)N[C@@H](C[C@@H]1CCNC1=O)C(=O)COC(F)(F)F` [Compound 517, N1-((S)-3-cyclopropyl-1-oxo-1-(((S)-3-oxo-1-((S)-2-oxopyrrolidin-3-yl)-4-(trifluoromethoxy)butan-2-yl)amino)propan-2-yl)-N2-(2,2,2-trifluoroethyl)oxalamide] stands less than 0.05 µM; under `CC1(C)[C@@H]2[C@@H](C(=O)N[C@@H](C[C@@H]3CCNC3=O)C(=O)COC(F)(F)F)N(C(=O)C(=O)Nc3ccccc3F)C[C@@H]21` [Compound 489, (1R,2S,5S)-3-(2-((2-fluorophenyl)amino)-2-oxoacetyl)-6,6-dimethyl-N-((S)-3-oxo-1-((S)-2-oxopyrrolidin-3-yl)-4-(trifluoromethoxy)butan-2-yl)-3-azabicyclo[3.1.0]-hexane-2-carboxamide], less than 0.05 µM; under `CC(C)C[C@@H](O)C(=O)N1C[C@H](C)C[C@H]1C(=O)N[C@@H](C[C@@H]1CCNC1=O)C(=O)COC(F)(F)F` [Compound 753, (2S,4R)-1-((R)-2-hydroxy-4-methylpentanoyl)-4-methyl-N-((S)-3-oxo-1-((S)-2-oxopyrrolidin-3-yl)-4-(trifluoromethoxy)butan-2-yl)pyrrolidine-2-carboxamide], less than 0.05 µM.

For `CC(C)CC(F)(F)C(=O)N1CC2(CC2)C[C@H]1C(=O)N[C@@H](C[C@@H]1CCNC1=O)C(=O)COC(F)(F)F` [Compound 623, (S)-5-(2,2-difluoro-4-methylpentanoyl)-N-((S)-3-oxo-1-((S)-2-oxopyrrolidin-3-yl)-4-(trifluoromethoxy)butan-2-yl)-5-azaspiro[2.4]heptane-6-carboxamide], the EC50 was less than 0.05 µM. As to `O=C1NCC[C@H]1C[C@H](NC(=O)[C@@H]1CC2(CC2)CN1C(=O)C1CCOCC1)C(=O)COC(F)(F)F` [Compound 682, (S)-N-((S)-3-oxo-1-((S)-2-oxopyrrolidin-3-yl)-4-(trifluoromethoxy)butan-2-yl)-5-(tetrahydro-2H-pyran-4-carbonyl)-5-azaspiro[2.4]heptane-6-carboxamide], the EC50 was in the range of 0.2 to 0.5 µM.
